According to the supplement of paper PMC10307832:

What was measured:
Assay in all cases: relative viability (nuclei count vs DMSO), 5 days (fraction); higher = more cells survive
[1] = compound: C1/C(=C\C2=CC=CS2)/C(=O)/C(=C/C3=CC=CS3)/C1 + C[C@@H](Oc1cc(-c2cnn(C3CCNCC3)c2)cnc1N)c1c(Cl)ccc(F)c1Cl [Crizotinib] (partner 1 µM)
Outline: (§1)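 Lung cancer cell lines were pin-tool dosed in 1536-well plates on the day after seeding, with either a lone drug or a fixed anchor-drug dose plus five library-drug doses (not always all listed) in √10 steps. Nuclei were counted on 4× images after 5 days. Relative viability is the ratio of treated-well to vehicle-well nuclei counts, with each value a median of duplicate plates.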

TPCA-1 + Lapatinib = compound: C1=CC(=CC=C1C2=CC(=C(S2)NC(=O)N)C(=O)N)F [TPCA-1] + CS(=O)(=O)CCNCc1ccc(-c2ccc3ncnc(Nc4ccc(OCc5cccc(F)c5)c(Cl)c4)c3c2)o1 [Lapatinib] (partner 2 µM)
Outline: as §1

[2] = compound: C[C@]12O[C@H](C[C@]1(O)CO)n1c3ccccc3c3c4c(c5c6ccccc6n2c5c31)CNC4=O [Lestaurtinib] + Cc1cc(Nc2cc(N3CCN(C)CC3)nc(Sc3ccc(NC(=O)C4CC4)cc3)n2)n[nH]1 [Tozasertib] (partner 0.1 µM)
Outline: as §1

[3] = compound: C[C@]12O[C@H](C[C@]1(O)CO)n1c3ccccc3c3c4c(c5c6ccccc6n2c5c31)CNC4=O [Lestaurtinib] + C[C@]1(O)C[C@@H](c2nc(-c3ccc4ccc(-c5ccccc5)nc4c3)c3c(N)nccn32)C1 [Linsitinib] (partner 1 µM)
Outline: as §1

Cell Line	relative viability ([1]; first compound 0.2 µM)	relative viability ([1]; first compound 0.6325 µM)	relative viability ([1]; first compound 2 µM)	relative viability ([1]; first compound 6.325 µM)	relative viability ([1]; first compound 20 µM)	relative viability (TPCA-1 + Lapatinib; first compound 0.04 µM)	relative viability (TPCA-1 + Lapatinib; first compound 0.1265 µM)	relative viability (TPCA-1 + Lapatinib; first compound 0.4 µM)	relative viability (TPCA-1 + Lapatinib; first compound 1.265 µM)	relative viability (TPCA-1 + Lapatinib; first compound 4 µM)	relative viability ([2]; first compound 0.005 µM)	relative viability ([2]; first compound 0.01581 µM)	relative viability ([2]; first compound 0.05 µM)	relative viability ([2]; first compound 0.1581 µM)	relative viability ([2]; first compound 0.5 µM)	relative viability ([3]; first compound 0.005 µM)	relative viability ([3]; first compound 0.01581 µM)	relative viability ([3]; first compound 0.05 µM)	relative viability ([3]; first compound 0.1581 µM)	relative viability ([3]; first compound 0.5 µM)
ABC-1	1.05	1.21	1.25	1.01	0.92	1.19	1.06	1.22	1.21	0.854	0.208	0.175	0.134	0.155	0.2	0.834	0.993	0.603	0.536	0.165
BEN	0.941	0.947	1.02	0.861	0.706	0.731	0.5	0.672	0.793	0.661	0.561	0.53	0.428	0.377	0.217	0.949	1.09	0.747	0.778	0.321
CAL-12T	0.839	0.912	0.673	0.362	0.596	0.638	0.582	0.708	0.38	0.389	0.32	0.44	0.333	0.37	0.332	0.805	0.84	0.774	0.565	0.416
COR-L23	0.536	0.69	0.639	0.592	0.633	1.09	0.859	0.903	1.09	0.678	0.197	0.229	0.184	0.174	0.184	1	0.858	–	0.471	0.153
COR-L 105	0.861	1.03	0.885	0.695	0.646	0.379	0.368	0.384	0.272	0.268	0.406	0.355	0.35	0.31	0.268	1.11	0.873	0.692	0.502	0.337
EKVX	1.01	0.982	0.922	0.929	0.926	0.217	0.184	0.241	0.198	0.205	0.345	0.432	0.417	0.378	0.395	1.03	1.13	0.949	1.08	0.552
EMC-BAC-2	0.789	0.792	0.751	0.59	0.695	0.993	0.854	0.895	0.752	0.756	0.279	0.206	0.283	0.22	0.183	0.764	0.801	0.641	0.45	0.221
EPLC-272H	1	0.885	1.01	0.797	0.735	1.28	0.829	0.947	0.954	0.775	0.297	0.282	0.322	0.231	0.128	1.13	1.05	0.517	0.54	0.577
H3255	0.847	1.06	0.793	0.8	0.845	0.261	0.24	0.236	0.219	0.162	0.611	0.884	0.633	0.587	0.5	0.986	1.07	0.864	0.668	0.457
HARA	0.985	1.05	1.03	0.758	1.03	0.744	0.988	0.791	0.722	0.691	0.126	0.106	0.111	0.108	0.102	1.02	1.09	0.648	0.453	0.198
HCC-15	0.833	0.881	0.771	0.779	0.79	0.942	0.856	0.908	0.819	0.52	0.598	0.599	0.232	0.235	0.107	0.98	0.958	0.71	0.529	0.159
HCC-44	0.802	0.862	0.712	0.734	0.798	0.974	0.961	1	0.913	0.904	0.882	1.08	0.996	1.48	0.354	0.597	0.725	0.577	0.88	0.366
HCC-78	0.334	0.35	0.354	0.313	0.327	0.628	0.35	0.718	0.672	0.0936	0.434	0.363	0.436	0.353	0.183	0.53	0.419	0.413	0.225	0.234
HCC-366	0.421	0.651	0.525	0.451	0.513	1.06	1.01	1.02	1.02	0.217	0.174	0.126	0.142	0.0841	0.072	0.678	0.694	0.28	0.257	0.109
HCC-827	0.961	0.898	0.949	0.635	0.978	0.193	0.198	0.188	0.166	0.132	0.492	0.405	0.396	0.348	0.217	0.913	0.996	0.87	0.857	0.762
HOP-62	0.985	1.07	1	0.712	0.804	1.23	0.901	1.02	0.882	0.873	0.35	0.43	0.396	0.356	0.234	0.838	0.994	0.995	1.05	0.891

Cell Line	relative viability ([1]; first compound 0.2 µM)	relative viability ([1]; first compound 0.6325 µM)	relative viability ([1]; first compound 2 µM)	relative viability ([1]; first compound 6.325 µM)	relative viability ([1]; first compound 20 µM)	relative viability (TPCA-1 + Lapatinib; first compound 0.04 µM)	relative viability (TPCA-1 + Lapatinib; first compound 0.1265 µM)	relative viability (TPCA-1 + Lapatinib; first compound 0.4 µM)	relative viability (TPCA-1 + Lapatinib; first compound 1.265 µM)	relative viability (TPCA-1 + Lapatinib; first compound 4 µM)	relative viability ([2]; first compound 0.005 µM)	relative viability ([2]; first compound 0.01581 µM)	relative viability ([2]; first compound 0.05 µM)	relative viability ([2]; first compound 0.1581 µM)	relative viability ([2]; first compound 0.5 µM)	relative viability ([3]; first compound 0.005 µM)	relative viability ([3]; first compound 0.01581 µM)	relative viability ([3]; first compound 0.05 µM)	relative viability ([3]; first compound 0.1581 µM)	relative viability ([3]; first compound 0.5 µM)
LC-2-ad	0.488	0.503	0.454	0.368	0.484	0.986	0.933	1.02	0.953	0.186	0.441	0.498	0.442	0.393	0.289	0.824	0.819	0.372	0.323	0.157
LCLC-97TM1	0.328	0.433	0.453	0.252	0.462	1.47	0.719	1.3	0.852	0.518	0.317	0.177	0.0893	0.133	0.171	0.2	0.172	0.153	0.135	0.113
LK-2	0.249	0.225	0.218	0.215	0.242	1.11	0.636	0.879	0.874	0.419	0.161	0.183	0.165	0.17	0.164	0.456	0.847	0.403	0.394	0.176
LOU-NH91	0.739	0.572	0.743	0.679	0.714	0.796	0.717	0.753	0.779	0.596	0.61	0.602	0.628	0.496	0.295	0.912	0.887	0.773	0.603	0.45
LU99A	0.539	0.665	0.625	0.466	0.562	1.02	0.872	1.11	0.81	0.426	0.287	0.297	0.271	0.218	0.226	0.46	0.443	0.3	0.284	0.21
LXF-289	0.811	0.835	0.767	0.709	0.821	0.914	0.927	0.807	0.831	0.726	0.229	0.206	0.194	0.203	0.141	0.967	0.964	0.741	0.802	0.197
NCI-H23	0.411	0.627	0.661	0.527	0.511	1.06	0.96	1.05	1	0.349	0.492	0.343	0.3	0.439	0.237	0.509	0.604	0.387	0.463	0.233
NCI-H322M	0.876	1.03	0.98	0.743	0.922	0.646	0.612	0.589	0.65	0.492	0.483	0.276	0.355	0.397	0.415	0.853	0.649	0.375	0.425	0.392
NCI-H358	0.623	0.661	0.599	0.438	0.693	0.479	0.428	0.462	0.361	0.334	0.103	0.0848	0.0849	0.0845	0.0896	0.622	0.494	0.311	0.301	0.187
NCI-H460	0.813	1.17	0.958	–	0.835	1.26	0.982	1.12	0.9	0.335	0.519	0.478	0.524	0.986	0.303	0.24	0.433	0.17	0.262	0.0291
NCI-H520	0.882	0.966	0.715	0.655	0.751	0.905	0.752	0.879	0.756	0.168	0.458	0.468	0.428	0.388	0.254	0.944	1.14	0.632	0.549	0.256
NCI-H596	1.09	0.975	1.04	0.981	0.949	1.06	1.08	1.15	1.13	1.07	0.885	1.16	0.746	1.06	0.955	1.04	1.01	0.882	1.21	0.907
NCI-H647	1.2	1.1	1.12	0.992	1	1.34	0.919	1.06	0.671	0.466	0.375	0.328	0.188	0.124	0.126	1.08	0.818	0.828	0.265	0.311
NCI-H650	0.658	0.921	0.632	0.893	0.768	1.03	1.05	0.93	0.357	0.487	0.727	0.802	0.603	0.483	0.29	0.79	0.915	0.503	0.455	0.179
NCI-H661	1.02	0.986	0.948	0.947	1.02	0.632	0.448	0.562	0.522	0.387	0.359	0.361	0.395	0.423	0.417	0.543	0.609	0.556	0.474	0.262
NCI-H727	0.885	0.779	0.755	0.745	0.762	0.83	0.772	0.694	0.815	0.738	0.598	0.728	0.63	0.584	0.41	0.306	0.255	0.28	0.285	0.18
